The values that follow are results of earlier work, collected in US20220183969A1, “OCULAR INSERT CONTAINING A GLUCOCORTICOID” (Ocular Therapeutix, Inc., priority 2020, published 2022).

The conditions of this data set: for Equivalent Dose: established equivalent oral dose; for Relative Potency: oral glucocorticoid potency with reference to cortisol.

SMILES strings stand for the structures.

Take `C[C@]12CCC(=O)C=C1CC[C@@H]1[C@@H]2[C@@H](O)C[C@@]2(C)[C@H]1CC[C@]2(O)C(=O)CO` [Cortisol]: the “Equivalent Dose” value was 20 mg and the “Relative Potency” value is listed as 1.

Turning to `C[C@@H]1C[C@H]2[C@@H]3CCC4=CC(=O)C=C[C@]4(C)[C@@]3(F)[C@@H](O)C[C@]2(C)[C@@]1(O)C(=O)CO` [Dexamethasone, 9-Fluor-11β,17,21-trihydroxy-16α-methyl-pregna-1,4-dien-3,20-dion], the “Equivalent Dose” value was 0.8 mg and the “Relative Potency” value was 25-80.

Turning to `C[C@]12C=CC(=O)C=C1CC[C@@H]1[C@@H]2[C@@H](O)C[C@@]2(C)[C@H]1CC[C@]2(O)C(=O)CO` [Prednisolone], the “Equivalent Dose” value is given as 5 mg and the “Relative Potency” value is 4.

Turning to `C[C@]12C=CC(=O)C=C1CC[C@H]1[C@@H]3C[C@@H](O)[C@](O)(C(=O)CO)[C@@]3(C)C[C@H](O)[C@@]12F` [Triamcinolone], the “Equivalent Dose” value was 4 mg and the “Relative Potency” value is given as 5.
